Entries after “also recorded” stand apart in the source; their conditions may differ.
Columns and labels:
[1] = tested on: isoproterenol-induced cardio-acceleration and hypotension; experiment: Beta-blocking and sympathomimetic activity against isoproterenol-induced cardio-acceleration and hypotension in anaesthetised dogs; type: in vivo, dog; details: for sympathomimetic activity / beta-blocking effect: product perfused i.v. at 25 mcg/kg/min, compared with Pindolol; for sympathomimetic activity: seen on cessation of isoprenaline; for beta-blocking effect: isoproterenol perfusion 0.2 mcg/kg/min; for beta-blocking properties relative to those of Pindolol: % of the beta-blocking properties of Pindolol, 25 mcg/kg/min i.v.
Method: These tests have been carried out on dogs (of both sexes) of weight comprised between 10 and 25 kg. These dogs were anesthetised by an injection of Pentobarbital (0.1 ml/kg of a 6% solution) and Chloralose (80 mg/kg). The blood pressure was recorded by means of a catheter inserted into the tibial artery and connected to a pressure cell, this pressure being recorded on a Beckman dynograph at the same time as an electrocardiogram; the latter enables the heart rhythm and the heart rate to be checked, integrated by a cardiotachometer.
The blood pressure and the electrocardiogram were first followed for five minutes. Then an isoproterenol solution was perfused into a cephalic vein, at the rate of 0.2 mcg/kg/min, namely 1 ml/min. After fiveperfusing for five minutes, the heart reached a tachycardiac level. At this moment, another perfusion was connected (into the cephalic vein of the other paw) of a Pindolol solution or of the product under study. The compounds of the invention was solubilized in 4 ml of DMF. The volume necessary for the perfusion was obtained by completing it with a 25% DMF solution in distilled water. All the products were injected at the rate of 25 mcg/kg/min. The
The extent to which the products were capable of antagonising the cardio-acceleration on the one hand and the hypotension on the other hand was examined.
After 35 minutes of perfusion, the isoprenaline injection was stopped. The Pindolol perfusion or that of the compound under study was interrupted after 40 minutes.

[2] = Pharmacological tests: cardiac stimulant effect; type: in vivo; details: at relatively high doses (of the order of 50 mg)
Description: Pharmacological tests have shown also that:

[3] = tested on: isoproterenol-induced cardio-acceleration and hypotension; details: statement on the comparison drug; cited from earlier work
beta 1 (isolated atria) = experiment: Tests on isolated atria (cardiac level)
[4] = Acute toxicity by the intravenous route in the rat; type: in vivo; details: in vivo, iv, LD 50
Method: (§1) As for its toxicity, for the determination of which experiments were carried out on two animal species, namely the rat of the OFA strain and the mouse of the OF1 strain, by two routes of administration namely the oral route and the intravenous route, the results obtained were as follows:
(§2) ACUTE TOXICITY OF THE PRODUCT S.C.S. 149 ADMINISTERED BY THE INTRAVENOUS ROUTE IN THE RAT
(§3) Death took place within 48 hours after administration of the product.
(§4) For the intravenous route, the product was solubilized in:
(§5) PEG 400+sterile water (1/3+2/3) in the rat.
(§6) The volume administered was:
(§7) The product was injected at the level of the caudal vein. Before administration of the product, the animals were kept fasting for 16 to 17 hours.

rat [5] = experiment: Acute toxicity by the intravenous route in the rat; type: in vivo
Method: as §1, §2, §3, §4, §5, §6, §7

[6] = Acute toxicity by the intravenous route in the mouse; details: in vivo; for LD50 at 48 h: 48 hours after treatment; for LD50 at 336 h: 14 days after treatment
Method: as §1
ACUTE TOXICITY OF THE PRODUCT S.C.S. 149 ADMINISTERED BY THE INTRAVENOUS ROUTE IN THE MOUSE
ACUTE TOXICITY OF THE S.C.S. 149 PRODUCT ADMINISTERED BY THE INTRAVENOUS ROUTE IN THE MOUSE
LD 50 14 days after treatment.
as §4
sterile water in the mouse
as §6, §7

[7] = Acute toxicity by the oral route in the rat; type: in vivo; details: in vivo, po, LD 50
Method: as §1
(§8) ACUTE TOXICITY OF THE S.C.S. 149 PRODUCT ADMINISTERED BY THE ORAL ROUTE IN THE RAT
(§9) Death occured within 48 hours after the treatment.
(§10) The product was solubilized, for oral administration, in 2% CMC in water; the volume administered was 25 ml/kg in the mouse and 5 ml/kg in the rat for the dose of 1 g/kg, 10 ml/kg for 2 g/kg and 20 ml/kg for 3.5 and 5 g/kg.
(§11) The product was administered by oesophagal intubation.
as §7

rat [8] = experiment: Acute toxicity by the oral route in the rat; type: in vivo
Method: as §1, §8, §9, §10, §11, §7

isolated bronchi = experiment: Tests on isolated bronchi (bronchial level)
dogs = experiment: Six-month toxicological test in dogs; type: in vivo; details: dogs of both sexes, daily for six months
Method: (§12) Also, toxicological tests have been carried out on 32 dogs (of both sexes) and 160 rats (of both sexes) for six months and have shown that S.C.S. 149 may be tolerated by the rats at a maximum daily dose of 500 mg/kg and by the dogs at a maximum daily dose of 100 mg/kg.

rats = experiment: Six-month toxicological test in rats; type: in vivo; details: rats of both sexes, daily for six months
Method: as §12

mouse = experiment: Acute toxicity by the oral route in the mouse; type: in vivo
Method: as §1
(§13) ACUTE TOXICITY OF THE PRODUCT S.C.S. 149 A ADMINISTERED BY THE ORAL ROUTE IN THE MOUSE
(§14) Death took place within 48 hours after treatment
as §10, §11, §7

[9] = Acute toxicity by the oral route in the mouse; type: in vivo; details: in vivo, po, LD 50
Method: as §1, §13, §14, §10, §11, §7

For `CCOC(=O)NC(=N)N(CC(O)COc1ccccc1C)C1CCCCC1` (stereo not drawn) [SCS 151], the sympathomimetic activity [1] was “sympathomimetic characteristics” and the sympathomimetic activity ([1]; listed as 151) was “sympathomimetic action”.

With `CCOC(=O)NC(=N)N(CC(O)COc1ccc(Cl)cc1)C(C)C` (stereo not drawn) [SCS 148] the beta-blocking effect [1] was “certain betablocking action masked by intrinsic sympathomimetic properties”, the sympathomimetic activity [1] was “intrinsic sympathomimetic properties” and the sympathomimetic activity ([1]; listed as 148) was “sympathomimetic action”.

For `CC(C)N(CC(O)COc1cccc2ccccc12)C(N)=O` (stereo not drawn) [SCS 131], the cardiac stimulant effect [2] was “cardiac stimulant effects; also recorded: cardiac stimulants”.

In the case of `CCCCNC(=O)N(CC(O)COc1cccc2ccccc12)C(C)C` (stereo not drawn) [SCS 128], the cardiac stimulant effect [2] was “cardiac stimulant effects; also recorded: cardiac stimulants”.

For `CCOC(=O)NC(=N)N(CC(O)COc1ccc(Cl)cc1)C1CCCCC1` (stereo not drawn) [SCS 147], the sympathomimetic activity [1] was “sympathomimetic activity still greater than that of the preceding compound” and the sympathomimetic activity ([1]; listed as 147) was “sympathomimetic action”.

In the case of `CC(C)NCC(O)COc1cccc2[nH]ccc12` (stereo not drawn) [Pindolol], the “intrinsic sympathomimetic action among beta-blocking agents currently used in therapeutics” value [3] is listed as “intrinsic sympathomimetic action is greatest”.

For `CCOC(=O)NC(=N)N(CC(O)COc1ccccc1Cl)C1CCCCC1` (stereo not drawn) [SCS 146], the sympathomimetic activity [1] was “sympathomimetic action; also recorded: considerable sympathomimetic activity”.

For `CCOC(=O)NC(=N)N(CC(O)COc1ccccc1C)C(C)C` (stereo not drawn) [SCS 150], the “beta-blocking properties relative to those of Pindolol” value [1] was “about 70%”, the beta-blocking effect [1] was “adrenergic beta-blocking properties” and the beta-blocking effect ([1]; listed as 150) was “beta-blocking effects”. The sympathomimetic activity [1] was “intrinsic sympathomimetic effects”.

In the case of `Cc1ccccc1OCC(O)CN(C(=N)NC(=O)c1ccccc1)C(C)C` (stereo not drawn) [SCS 149], the “beta 1 blocking activity, type at the cardiac level” value (beta 1 (isolated atria)) was “beta 1 blocking activity of competitive type”, the LD50 at 48 h [4] was 35.3 mg/kg and the “LD 50” value (rat [5]; in vivo, iv, 48 h) was 40.37 mg/kg. For the same molecule, the “time of death after administration” value (rat [5]; intravenous) was ≤ 48 h, the LD50 at 48 h ([6]; female mice) was 38.8 mg/kg and the LD50 at 336 h ([6]; female mice) was 38.1 mg/kg. It also gave an LD50 at 48 h ([6]; male mice) of 37.2 mg/kg, an LD50 at 336 h ([6]; male mice) of 37.2 mg/kg and an LD50 at 48 h [7] of 3330 mg/kg. For the same molecule, the “LD 50” value (rat [8]; in vivo, po, 48 h) was 2932.6 mg/kg, the “time of death after treatment” value (rat [8]; oral) was ≤ 48 h and the “blocking activity, type at the bronchial level” value (isolated bronchi) was “of the competitive type”. For the same molecule, the “maximum tolerated daily dose” value (dogs) was 100 mg/kg, the “maximum tolerated daily dose” value (rats) was 500 mg/kg and the “beta-blocking properties relative to those of Pindolol” value [1] was “about 60%”. The beta-blocking effect [1] was “undisputable beta-blocking properties”, the beta-blocking effect ([1]; listed as 149) was “beta-blocking effects” and the sympathomimetic activity [1] was “intrinsic sympathomimetic effects”. For the same molecule, the “LD 50” value (mouse; in vivo, po, 48 h) was 604.81 mg/kg, the “time of death after treatment” value (mouse; oral) was ≤ 48 h and the LD50 at 48 h [9] was 560 mg/kg.
